{"source": "ChEMBL document CHEMBL1921793", "about": "“Bacterial production of the tunicate-derived antitumor cyclic depsipeptide didemnin B” (J Nat Prod, 2011)", "key": {"A549": {"tested_on": "A549", "assay": "Cytotoxicity against human A549 cells after 96 hrs by microplate reader analysis", "assay_type": "functional, cell-based", "conditions": "A549, 96 h"}, "HT-29": {"tested_on": "HT-29", "assay": "Cytotoxicity against human HT-29 cells after 96 hrs by microplate reader analysis", "assay_type": "functional, cell-based", "conditions": "HT-29, 96 h"}}}
{"smiles": "CC[C@H](C)[C@@H]1NC(=O)[C@@H](NC(=O)[C@@H](CC(C)C)N(C)C(=O)[C@@H]2CCCN2C(=O)[C@H](C)OC(C)=O)[C@H](C)OC(=O)[C@H](Cc2ccc(OC)cc2)N(C)C(=O)[C@@H]2CCCN2C(=O)[C@H](CC(C)C)NC(=O)[C@@H](C)C(=O)[C@H](C(C)C)OC(=O)C[C@@H]1O", "note": "[NORDIDEMNIN B]", "values": [{"measurement": "IC50", "setting": "A549", "value": 7, "unit": "ng/mL"}, {"measurement": "IC50", "setting": "HT-29", "value": 0.01, "unit": "µg/mL"}]}
